Assay results taken from patent publication US20110160184A1, “Dibenzothiazepine Derivatives and Use Thereof” (ASTRAZENECA AB, priority 2008, published 2011).
Like-named read-outs stand apart in the source and are kept apart here.

Key:
dopamine D2s receptor [1] = molecular target: T1, dopamine D2s receptor (Homo sapiens, UniProt P14416); experiment: D2 receptor binding assay (3H-raclopride displacement, membranes from D2s-transfected CHO cells)
T1 construct: expressed in transfected cells; membranes used
T1 sequence (P14416 1-414 isoform P14416-2): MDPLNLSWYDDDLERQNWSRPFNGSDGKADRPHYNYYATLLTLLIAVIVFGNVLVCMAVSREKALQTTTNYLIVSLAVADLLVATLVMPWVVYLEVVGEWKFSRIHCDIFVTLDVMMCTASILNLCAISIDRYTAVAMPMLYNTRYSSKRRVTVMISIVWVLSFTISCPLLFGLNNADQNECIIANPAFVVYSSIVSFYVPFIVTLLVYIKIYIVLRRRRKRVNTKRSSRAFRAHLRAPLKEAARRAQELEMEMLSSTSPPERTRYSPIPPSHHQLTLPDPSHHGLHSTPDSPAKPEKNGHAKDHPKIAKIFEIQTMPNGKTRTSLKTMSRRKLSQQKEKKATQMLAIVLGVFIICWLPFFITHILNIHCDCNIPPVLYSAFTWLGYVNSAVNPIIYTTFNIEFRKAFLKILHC
Protocol: (§1) In vitro experimental assays can generally be carried out as described herein. Briefly, CHO-K1 cells stably transfected with the dopamine D2s receptor can be used in the experiments and maintained in Ham's F12 culture medium supplemented with 2 mM L-glutamine, 10% FBS, and 500 μg/ml Hygromycin.
The ability of test compounds to displace ^3H-raclopride at the D2s receptor can be determined on membranes from D2s-transfected CHO cells (Bmax 13 pmol/mg protein). An assay can use a standard 96-well glass-fiber filter plate to retain radioligand bound by the receptor. Retained ^3H can be determined in a TopCount scintillation plate counter following the addition of a liquid scintillant to each well. Compounds can be evaluated for their potency using competition curve analysis, resulting in calculated Ki values.

dopamine D2s receptor [2] = molecular target: T1, dopamine D2s receptor; experiment: D2 receptor in vitro functional GTPγS assay (block of dopamine-stimulated [35S]-GTPγS binding); format: biochemical
Protocol: as §1
GTPgS assay can be performed substantially as described by Lazareno, Methods in Molecular Biology, 1999, 106, 231-245. Antagonist activity of compounds can be determined by the ability of test compounds to block dopamine-stimulated [^35S]-GTPγS binding to cell membranes from D2s stably-transfected CHO cells.

[3] = molecular target: T2, human norepinephrine transporter (Homo sapiens, UniProt P23975); experiment: Norepinephrine uptake (fluorescent substrate, HEK293F cells); format: cell-based
T2 construct: expressed in transfected cells
T2 sequence (P23975 whole entry): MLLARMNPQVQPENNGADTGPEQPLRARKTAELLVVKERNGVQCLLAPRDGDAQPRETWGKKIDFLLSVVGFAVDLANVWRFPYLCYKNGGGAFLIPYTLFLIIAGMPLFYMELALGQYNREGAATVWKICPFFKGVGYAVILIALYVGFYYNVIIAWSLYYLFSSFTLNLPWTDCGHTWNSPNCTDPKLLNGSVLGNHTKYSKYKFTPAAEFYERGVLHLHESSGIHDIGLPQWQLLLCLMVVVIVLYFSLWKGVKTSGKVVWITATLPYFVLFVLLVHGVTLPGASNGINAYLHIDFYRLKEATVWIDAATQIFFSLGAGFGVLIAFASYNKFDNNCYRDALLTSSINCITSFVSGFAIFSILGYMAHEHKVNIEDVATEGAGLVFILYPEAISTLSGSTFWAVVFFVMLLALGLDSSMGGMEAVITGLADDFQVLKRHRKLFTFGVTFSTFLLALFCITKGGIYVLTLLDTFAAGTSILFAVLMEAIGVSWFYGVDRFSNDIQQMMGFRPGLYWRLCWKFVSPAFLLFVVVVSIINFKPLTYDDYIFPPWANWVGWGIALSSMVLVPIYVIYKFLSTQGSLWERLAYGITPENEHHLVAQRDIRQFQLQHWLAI
Protocol: An assay for measuring norepinephrine uptake can be carried out as described below. Briefly, test compounds can be evaluated in an 11-point IC50 curve for their ability to inhibit uptake of a proprietary fluorescent substrate (dye) from Molecular Devices that mimics biogenic amine neurotransmitters. A stable population of HEK293F cells transfected with the human norepinephrine transporter (cultured in Freestyle 293 expression medium with […] hygromycin B) can be cryopreserved, then plated and used on the day of the assay. Cells can be at 60 K/well; dye can be 7% (final) of the vendor-recommended reconstitution volume (100%). Compounds can be diluted 1:20 in buffer and incubated with the cells for 30 minutes prior to addition of the dye. In this fluorescence intensity assay, plates can be read after a 20 minute dye incubation to determine percent effect with respect to total signal (0.5% DMSO, final) and background signal (10 μM desipramine, final). The IC50, half of the control response, can be converted to Ki using the using the standard Cheng-Prusoff equation.

H1 receptor = H1 receptor (Homo sapiens, UniProt P35367); experiment: H1 receptor binding; details: read-out: H1 Hu Bind Mean Ki
Sequence of H1 receptor (P35367 whole entry): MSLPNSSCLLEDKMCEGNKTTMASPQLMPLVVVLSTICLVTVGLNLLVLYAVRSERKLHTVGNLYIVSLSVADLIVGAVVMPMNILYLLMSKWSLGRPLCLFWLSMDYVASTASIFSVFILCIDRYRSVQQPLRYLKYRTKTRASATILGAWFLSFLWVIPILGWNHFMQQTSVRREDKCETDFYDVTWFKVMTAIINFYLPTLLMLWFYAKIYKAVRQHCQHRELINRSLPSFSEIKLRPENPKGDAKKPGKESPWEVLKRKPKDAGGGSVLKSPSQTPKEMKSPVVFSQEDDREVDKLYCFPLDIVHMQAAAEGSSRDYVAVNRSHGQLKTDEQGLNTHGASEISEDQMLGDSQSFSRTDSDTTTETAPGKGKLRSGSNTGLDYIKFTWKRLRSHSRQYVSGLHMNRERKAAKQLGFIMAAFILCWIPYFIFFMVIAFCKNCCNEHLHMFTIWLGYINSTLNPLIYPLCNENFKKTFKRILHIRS
Description: H1 Receptor Binding The H1 receptor binding method can be carried out in accordance with De Backer et al., Biochem. Biophys. Res. Commun, 1993, 197(3), 1601.

[4] = tested on: Conditioned Avoidance Responding; experiment: Conditioned avoidance responding (CAR) assay; format: in vivo, Male Long-Evans rats; details: rat
Protocol: Male Long-Evans rats can be trained to traverse to the opposite side of a standard shuttle cage following presentation of an auditory and visual stimulus to avoid delivery of electric shock to the floor of the cage. Daily sessions can consist of up to 80 trials. If a shock is delivered, animals have the opportunity to escape the shock by traversing to the opposite side of the cage. Drug can be administered (via s.c. or p.o. route) 60 minutes prior to testing and the percentage of trials in which shock is avoided and escaped can be recorded.

[5] = tested on: D-Amphetamine-induced Hyperlocomotor Activity; experiment: D-Amphetamine-induced hyperlocomotor activity (LMA) in habituated rat model; format: in vivo, male Long Evans rats; details: D-amphetamine 1 mg/kg s.c.
Protocol: Studies in vivo can be used to determine the antipsychotic effect and are generally carried out as follows. Briefly, D-Amphetamine-induced Hyperlocomotor Activity (LMA) in a Habituated Rat Model can be assessed in male Long Evans rats using a paradigm that includes a habituation phase followed by administration of 1 mg/kg D-amphetamine. Animals can be allowed to acclimatize to the testing room for 1 hour before being weighed and placed into activity chambers. Thirty minutes after LMA measurement is begun, animals can be briefly removed, dosed via the sub-cutaneous route (s.c.) with vehicle or test drug at different doses and returned to the chambers. After a further 30 minutes, animals can again be removed and dosed with vehicle or D-amphetamine at 1 mg/kg (s.c.). After returning the animals to the activity chambers, LMA can be assessed for a further 60 minutes. Haloperidol (0.1 mg/kg dissolved in H2O) can be administered 15 minutes prior to D-amphetamine via the s.c. route. Statistical analysis can be made of total distance traveled after D-amphetamine administration using ANOVA and Tukey's post hoc analysis where appropriate. All values can be expressed as Mean and SD.

[6] = w/NaCl, read-out: D2 binding w/NaCl Ki
[7] = antagonist mode, read-out: D2 Ant GTPγS IC50
[8] = HEK cells, fluorescence intensity, read-out: hNET uptake HEK FLInt CR Mean Ki

| Compound | Ki (dopamine D2s receptor [1]; [6]) | IC50 (dopamine D2s receptor [2]; [7]) | Ki [3, 8] | Ki (H1 receptor) | Ki (dopamine D2s receptor [1]; 3H-raclopride, D2s-transfected CHO cell membranes, one average result, read-out: D2 binding Ki) | IC50 (dopamine D2s receptor [2]; antagonist, dopamine-stimulated [35S]-GTPγS binding, D2s CHO membranes, one average result, read-out: GTPγS IC50) | Ki ([3]; HEK293F cells with human NET, Cheng-Prusoff from IC50, one average result, read-out: NET inhibition Ki) | activity in conditioned avoidance responding ([4]; 30 mg/kg (sc)) | activity in conditioned avoidance responding ([4]; 60 mg/kg (sc)) | activity in D-amphetamine-induced LMA ([5]; 30 mg/kg (sc)) | activity in D-amphetamine-induced LMA ([5]; 60 mg/kg (sc)) |
| --- | --- | --- | --- | --- | --- | --- | --- | --- | --- | --- | --- |
| CN1CCN(C2=Nc3ccccc3Sc3ccc(Cl)cc32)CC1 [2-Chloro-11-(4-methyl-piperazin-1-yl)-dibenzo[b,f][1,4]thiazepine] | 0.49 nM | 8.4 nM |  |  |  |  |  |  |  |  |  |
| Clc1ccc2c(c1)C(N1CCNCC1)=Nc1ccccc1S2 [2-Chloro-11-piperazin-1-yl-dibenzo[b,f][1,4]thiazepine] | 0.7 nM | 35 nM | 41 nM | 3.87 nM |  |  |  |  |  |  |  |
| CN1CCN(C2=Nc3ccccc3Sc3ccc(F)cc32)CC1 [2-Fluoro-11-(4-methyl-piperazin-1-yl)-dibenzo[b,f][1,4]thiazepine] | 1.1 nM | 170 nM | 59 nM | 1.82 nM |  |  |  |  |  |  |  |
| c1ccc2c(c1)N=C(N1CCNCC1)c1ccccc1S2 [11-Piperazin-1-yl-dibenzo[b,f][1,4]thiazepine] | 37 nM | 800 nM | 24 nM | 3.33 nM |  |  |  |  |  |  |  |
| Fc1ccc2c(c1)C(N1CCNCC1)=Nc1ccccc1S2 [Example 1, 2-fluoro-11-(piperazin-1-yl)dibenzo[b,f][1,4]thiazepine] | 11 nM | 400 nM | 9.6 nM |  | ~11 nM | ~404 nM | ~10 nM | showed activity | showed activity | showed activity | showed activity |
